Data reported in patent US11214594B2, “Antimicrobial peptide having synergistic antibacterial effect with antibiotics on multidrug resistant bacteria, and use thereof” (priority 2016, dated 2022).
Values after ≈ are worked out from the molar mass of the structure shown. Where two headings read alike, the source gives them in different places. Where a SMILES comes first, the peptide text is derived from it.

How the values were obtained:
[1] = tested on: MDRAB 12035; assay: MIC of antibiotic during combined treatment with antimicrobial peptide; type: cell-based, Acinetobacter baumannii
In short: (§1)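 Antibiotic MIC came from antibiotic dilutions added to bacteria (2×10^6 CFU/ml, MH medium) already combined with peptide serially diluted 2:1 from its own MIC. Swapping the roles of the two agents gave the peptide MIC.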

[2] = tested on: P. aeruginosa; assay: microbe, parasite or virus in culture; type: cell-based, Pseudomonas aeruginosa
In short: (§2)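 Broth microdilution in MH medium: bacterial strains diluted to 2×10^6 CFU were mixed with equal volumes of peptide serially diluted twofold in MH medium.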

[3] = tested on: E. coli; type: cell-based, Escherichia coli; details: E. coli
In short: as §1

[4] = tested on: MDREC 1229; type: cell-based, Escherichia coli
In short: as §1

[5] = tested on: MDRST 8007; assay: Minimal inhibitory concentration (MIC), single agent; type: cell-based, Salmonella typhimurium; details: agent alone
In short: as §2

[6] = tested on: B. subtilis; assay: microbe, parasite or virus in culture; type: cell-based, Bacillus subtilis
In short: as §2

[7] = tested on: MRSA 3126; type: cell-based, Staphylococcus aureus; details: 3126
In short: as §2

[8] = tested on: MRSA 3114; type: cell-based, Staphylococcus aureus; details: 3114
In short: as §2

[9] = tested on: MDRPA 2003; type: cell-based, Pseudomonas aeruginosa
In short: as §2

[10] = tested on: MDRPA 2002; type: cell-based, Pseudomonas aeruginosa
In short: as §2

[11] = tested on: MDRST 8009; type: cell-based, Salmonella typhimurium; details: agent alone
In short: as §2

[12] = tested on: MDRAB 12035; assay: MIC of antimicrobial peptide during combined treatment with antibiotic; type: cell-based, Acinetobacter baumannii
In short: as §1

[13] = tested on: A. baumannii; assay: as above; type: cell-based, Acinetobacter baumannii
In short: as §1

[14] = tested on: E. coli; assay: microbe, parasite or virus in culture; type: cell-based, Escherichia coli; details: 16 h
In short: as §2

[15] = tested on: MDREC 1229; assay: microbe, parasite or virus in culture; type: cell-based, Escherichia coli
In short: as §2

[16] = tested on: MDRAB 12036; type: cell-based, Acinetobacter baumannii
In short: as §2

[17] = peptide treatment concentration 32 μg/ml
[18] = peptide treatment concentration 64 μg/ml
[19] = with Erythromycin […] (Conc./MIC 1)
[20] = erythromycin 4 μg/ml (Conc./MIC 1/8)
[21] = erythromycin 8 μg/ml (Conc./MIC 1/4)
[22] = erythromycin 16 μg/ml (Conc./MIC 1/2)
[23] = erythromycin 32 μg/ml (Conc./MIC 1)
[24] = vancomycin 512 μg/ml (Conc./MIC 1/2)
[25] = vancomycin 1024 μg/ml (Conc./MIC 1)

In the case of `CC[C@H](C)[C@H](NC(=O)[C@H](CCCCN)NC(=O)[C@H](Cc1c[nH]c2ccccc12)NC(=O)[C@@H](N)CCCNC(=N)N)C(=O)N[C@@H](Cc1ccccc1)C(=O)N[C@@H](CCCCN)C(=O)N[C@@H](CCCCN)C(=O)N[C@H](C(=O)N1CCC[C@H]1C(=O)N[C@@H](CCCCN)C(=O)N[C@@H](Cc1ccccc1)C(=O)N[C@@H](CC(C)C)C(=O)N[C@@H](Cc1c[nH]cn1)C(=O)N[C@@H](CO)C(=O)N[C@@H](CC(C)C)C(=O)N[C@@H](CCCCN)C(=O)N[C@@H](CCCCN)C(=O)N[C@@H](Cc1ccccc1)C(N)=O)[C@@H](C)CC` [PapMA-6, RWK IFK KIP KFL HSL KKF-NH2] (H-RWKIFKKIPKFLHSLKKF-NH2; N-terminus assumed), the “Linezolid MIC during combined treatment with peptide” value [1, 17] is reported as 1 µg/mL, the “Vancomycin MIC during combined treatment with peptide” value [1, 17] is reported as 2 µg/mL and the “Erythromycin MIC during combined treatment with peptide” value [1, 18] is reported as 0 µg/mL. For the same molecule, the “Linezolid MIC during combined treatment with peptide” value [1, 18] was 0 µg/mL, the “Vancomycin MIC during combined treatment with peptide” value [1, 18] was 0 µg/mL and the “Minimal inhibitory concentration MIC” value [2] was 16 µg/mL (≈ 6.83 µM). The “Antibacterial activity (in words)” value ([2]; P. aeruginosa and S. typhimurium) was “significantly increased”, the “Peptide MIC” value [3, 19] was 0 µg/mL and the “Peptide MIC” value ([3]; with Linezolid […] (Conc./MIC 1)) was 0 µg/mL. The “Peptide MIC” value ([3]; with Vancomycin 1024 μg/ml (Conc./MIC 1)) was 0 µg/mL, the “Peptide MIC” value [4, 19] was 0 µg/mL and the “Peptide MIC” value ([4]; with Linezolid 512 μg/ml (Conc./MIC 1)) was 0 µg/mL. The “Minimal inhibitory concentration MIC” value [5] was 32 µg/mL (≈ 13.7 µM), the “Minimal inhibitory concentration MIC” value [6] was over 128 µg/mL and the “Minimal inhibitory concentration MIC” value [7] was over 128 µg/mL. The “Minimal inhibitory concentration MIC” value [8] was over 128 µg/mL, the “Minimal inhibitory concentration MIC” value [9] was 32 µg/mL (≈ 13.7 µM) and the “Minimal inhibitory concentration MIC” value [10] was 32 µg/mL (≈ 13.7 µM). For the same molecule, the “Minimal inhibitory concentration MIC” value [11] was 64 µg/mL (≈ 27.3 µM), the “Peptide MIC during treatment with erythromycin” value [12, 20] was 4 µg/mL and the “Peptide MIC during treatment with erythromycin” value [12, 21] was 2 µg/mL. For the same molecule, the “Peptide MIC during treatment with erythromycin” value [12, 22] was 1 µg/mL, the “Peptide MIC during treatment with erythromycin” value [12, 23] was 0 µg/mL and the “Peptide MIC during treatment with linezolid” value ([12]; linezolid 64 μg/ml (Conc./MIC 1/8)) was 2 µg/mL. For the same molecule, the “Peptide MIC during treatment with linezolid” value ([12]; linezolid 512 μg/ml (Conc./MIC 1)) was 0 µg/mL, the “Peptide MIC during treatment with linezolid” value ([12]; linezolid […] (Conc./MIC 1/2)) was 1 µg/mL and the “Peptide MIC during treatment with linezolid” value ([12]; linezolid […] (Conc./MIC 1/4)) was 1 µg/mL. The “Peptide MIC during treatment with vancomycin” value [12, 24] was 1 µg/mL, the “Peptide MIC during treatment with vancomycin” value [12, 25] was 0.25 µg/mL and the “Peptide MIC during treatment with vancomycin” value ([12]; vancomycin […] (Conc./MIC 1/4)) was 2 µg/mL. The “Peptide MIC during treatment with vancomycin” value ([12]; vancomycin […] (Conc./MIC 1/8)) was 2 µg/mL, the “Peptide MIC during treatment with antibiotic” value [13, 20] was 4 µg/mL and the “Peptide MIC during treatment with antibiotic” value [13, 21] was 2 µg/mL. The “Peptide MIC during treatment with antibiotic” value [13, 22] was 1 µg/mL, the “Peptide MIC during treatment with antibiotic” value [13, 23] was 0 µg/mL and the “Peptide MIC during treatment with antibiotic” value ([13]; linezolid 32 μg/ml (Conc./MIC 1/8)) was 4 µg/mL. The “Peptide MIC during treatment with antibiotic” value ([13]; linezolid 64 μg/ml (Conc./MIC 1/4)) was 2 µg/mL, the “Peptide MIC during treatment with antibiotic” value ([13]; linezolid […] (Conc./MIC 1)) was 0 µg/mL and the “Peptide MIC during treatment with antibiotic” value ([13]; linezolid […] (Conc./MIC 1/2)) was 1 µg/mL. For the same molecule, the “Peptide MIC during treatment with antibiotic” value [13, 24] was 0.25 µg/mL, the “Peptide MIC during treatment with antibiotic” value [13, 25] was 0 µg/mL and the “Peptide MIC during treatment with antibiotic” value ([13]; vancomycin […] (Conc./MIC 1/4)) was 0.5 µg/mL. For the same molecule, the “Peptide MIC during treatment with antibiotic” value ([13]; vancomycin […] (Conc./MIC 1/8)) was 2 µg/mL, the “Minimal inhibitory concentration MIC” value [14] was 64 µg/mL (≈ 27.3 µM) and the “Minimal inhibitory concentration MIC” value [15] was 64 µg/mL (≈ 27.3 µM). For the same molecule, the “Minimal inhibitory concentration MIC” value [16] was 64 µg/mL (≈ 27.3 µM).
